Reference: patent US8455475B2 (Gruenenthal GmbH, priority 2009, dated 2013)

Assays:
[1] = target: T1, rat B1R (bradykinin receptor 1) (Rattus norvegicus, UniProt P97583); test: FLIPR Ca2+ assay (Fluo-4) on CHO K1 cells stably transfected with the B1R gene of the rat (rB1R cells): % inhibition at 10 μM / IC50, agonist Des-Arg9-bradykinin; type: cell-based; conditions: CHO-K1, rat B1R
T1 construct: expressed in transfected cells; host or cells: CHO K1 cells
T1 sequence (P97583 1-337): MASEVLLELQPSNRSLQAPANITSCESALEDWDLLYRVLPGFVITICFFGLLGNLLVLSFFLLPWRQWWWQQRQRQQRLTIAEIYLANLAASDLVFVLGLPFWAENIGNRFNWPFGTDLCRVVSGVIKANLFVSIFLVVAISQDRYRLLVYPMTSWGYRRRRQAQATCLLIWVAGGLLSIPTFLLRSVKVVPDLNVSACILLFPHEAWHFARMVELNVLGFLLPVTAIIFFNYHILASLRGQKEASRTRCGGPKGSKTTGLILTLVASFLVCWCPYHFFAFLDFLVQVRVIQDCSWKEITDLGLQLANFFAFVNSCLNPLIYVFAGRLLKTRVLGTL
Procedure, shortened: (§1)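 Stable CHO K1 lines, Fluo-4 dye, probenecid-containing buffer. Cpd 10 μM or dose range, 10–20 min, then EC80 agonist (h: Lys-Des-Arg9-BK; r: Des-Arg9-BK). Readout peak FC; % inhibition vs max; IC50 from n=2–3, N≥2.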

[2] = target: T2, human B1R (bradykinin receptor 1) (Homo sapiens, UniProt P46663); test: FLIPR Ca2+ assay (Fluo-4) on CHO K1 cells stably transfected with the human B1R gene (hB1R cells): % inhibition at 10 μM / IC50, agonist Lys-Des-Arg9-bradykinin; type: cell-based; conditions: CHO-K1, human B1R
T2 construct: expressed in transfected cells; host or cells: CHO K1 cells
T2 sequence (P46663 1-353): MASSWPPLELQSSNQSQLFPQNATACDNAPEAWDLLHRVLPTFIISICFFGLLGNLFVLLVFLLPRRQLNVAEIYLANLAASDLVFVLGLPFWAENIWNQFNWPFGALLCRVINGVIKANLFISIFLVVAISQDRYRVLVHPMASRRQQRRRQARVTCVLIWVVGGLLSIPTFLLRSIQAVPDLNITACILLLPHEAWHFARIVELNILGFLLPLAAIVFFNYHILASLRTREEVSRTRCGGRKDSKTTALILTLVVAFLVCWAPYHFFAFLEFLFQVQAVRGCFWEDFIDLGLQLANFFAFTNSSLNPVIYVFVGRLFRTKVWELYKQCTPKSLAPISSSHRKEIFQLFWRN
Procedure, shortened: as §1

| inhibition at 10 µM [1] [%] | inhibition at 10 µM [2] [%] | SMILES |
| --- | --- | --- |
| 47 | 56 | O=C(c1cccc2c1CC[C@H]2N1Cc2cccc(Cl)c2C1=O)N1CCC2(CC1)CCN(c1ccncc1)CC2 [Example H-170, 7-Chloro-2-[(1R)-4-(9-pyridin-4-yl-3,9-diazaspiro[5.5]undecane-3-carbonyl)-2,3-dihydro-1H-inden-1-yl]-2,3-dihydro-isoindol-1-one] |
| 104 | 100 | O=C(N[C@@H]1CCc2cc(C(=O)N3CCC4(CCN(c5ccncc5)CC4)C3)ccc21)c1ccccc1Cl [Example H-171] |
| 105 | 99 | O=C(N[C@@H]1CCc2cc(C(=O)N3CCC4(CC3)CCN(c3ccncc3)CC4)ccc21)c1ccccc1Cl [Example H-172, 2-chloro-N-[(1R)-5-(9-pyridin-4-yl-3,9-diazaspiro[5.5]undecane-3-carbonyl)-2,3-dihydro-1H-inden-1-yl]-benzamide] |
| 89 | 100 | O=C(c1ccc2c(c1)CC[C@H]2NS(=O)(=O)c1ccccc1Cl)N1CCC2(CCN(c3ccncc3)CC2)C1 [Example H-173, 2-Chloro-N-[(1R)-5-(8-pyridin-4-yl-3,8-diazaspiro[4.5]decane-3-carbonyl)-2,3-dihydro-1H-inden-1-yl]-benzenesulfonic acid amide] |
| 102 | 100 | CN(C(=O)c1cc(Cl)ccc1Cl)C1CCc2ccc(C(=O)N3CCC4(CC3)CCN(c3ccncc3)CC4)cc21 (stereo not drawn) [IND_CC-200, 2,5-Dichloro-N-methyl-N-[6-(9-pyridin-4-yl-3,9-diazaspiro[5.5]undecane-3-carbonyl)-2,3-dihydro-1H-inden-1-yl]-benzamide] |
| 103 | 86 | CN(C(=O)c1cc(C(F)(F)F)ccc1Cl)C1CCc2ccc(C(=O)N3CCC4(CC3)CCN(c3ccncc3)CC4)cc21 (stereo not drawn) [IND_CC-202, 2-Chloro-N-methyl-N-[6-(9-pyridin-4-yl-3,9-diazaspiro[5.5]undecane-3-carbonyl)-2,3-dihydro-1H-inden-1-yl]-5-(trifluoromethyl)-benzamide] |
| 103 | 99 | CN(C(=O)c1cc(F)ccc1Cl)C1CCc2ccc(C(=O)N3CCC4(CC3)CCN(c3ccncc3)CC4)cc21 (stereo not drawn) [IND_CC-203, 2-Chloro-5-fluoro-N-methyl-N-[6-(9-pyridin-4-yl-3,9-diazaspiro[5.5]undecane-3-carbonyl)-2,3-dihydro-1H-inden-1-yl]-benzamide] |
| 102 | 99 | O=C(NC1CCc2ccc(C(=O)N3CCC4(CC3)CCN(c3ccncc3)CC4)cc21)c1c(Cl)cccc1C(F)(F)F (stereo not drawn) [IND_CC-204, 2-Chloro-N-[6-(9-pyridin-4-yl-3,9-diazaspiro[5.5]undecane-3-carbonyl)-2,3-dihydro-1H-inden-1-yl]-6-(trifluoromethyl)-benzamide] |
| 103 | 100 | CC1(C)Cc2ccc(C(=O)N3CCC4(CC3)CCN(c3ccncc3)CC4)cc2C1NC(=O)c1c(Cl)cccc1C(F)(F)F (stereo not drawn) [IND_CC-206, 2-Chloro-N-[2,2-dimethyl-6-(9-pyridin-4-yl-3,9-diazaspiro[5.5]undecane-3-carbonyl)-1,3-dihydro-inden-1-yl]-6-(trifluoromethyl)-benzamide] |
| 101 | 98 | O=C(NC1CCc2ccc(C(=O)N3CCC4(CC3)CCN(c3ccncc3)CC4)cc21)c1cc(Cl)ccc1Cl (stereo not drawn) [IND_CC-207, 2,5-Dichloro-N-[6-(9-pyridin-4-yl-3,9-diazaspiro[5.5]undecane-3-carbonyl)-2,3-dihydro-1H-inden-1-yl]-benzamide] |
| 100 | 99 | O=C(NC1CCc2ccc(C(=O)N3CCC4(CC3)CCN(c3ccncc3)C4)cc21)c1cc(Cl)ccc1Cl (stereo not drawn) [IND_CC-208, 2,5-Dichloro-N-[6-(2-pyridin-4-yl-2,8-diazaspiro[4.5]decane-8-carbonyl)-2,3-dihydro-1H-inden-1-yl]-benzamide] |
| 102 | 20 | O=C(NC1CCc2ccc(C(=O)N3CCC4(CC3)CCN(c3ccc(C(F)(F)F)cc3)CC4)cc21)c1cc(Cl)ccc1Cl (stereo not drawn) [IND_CC-209, 2,5-Dichloro-N-[6-[9-[4-(trifluoromethyl)-phenyl]-3,9-diazaspiro[5.5]undecane-3-carbonyl]-2,3-dihydro-1H-inden-1-yl]-benzamide] |
| 104 | 97 | CC1(C)Cc2ccc(C(=O)N3CCC4(CC3)CCN(c3ccncc3)CC4)cc2C1NC(=O)c1cc(Cl)ccc1Cl (stereo not drawn) [IND_CC-210, 2,5-Dichloro-N-[2,2-dimethyl-6-(9-pyridin-4-yl-3,9-diazaspiro[5.5]undecane-3-carbonyl)-1,3-dihydro-inden-1-yl]-benzamide] |
| 102 | 58 | COc1ccc(C(=O)NC2CCc3ccc(C(=O)N4CCC5(CC4)CCN(c4ccncc4)C5)cc32)c(Cl)c1 (stereo not drawn) [IND_CC-212, 2-Chloro-4-methoxy-N-[6-(2-pyridin-4-yl-2,8-diazaspiro[4.5]decane-8-carbonyl)-2,3-dihydro-1H-inden-1-yl]-benzamide] |
| 102 | 83 | Cc1ccc(F)c(C(=O)NC2CCc3ccc(C(=O)N4CCC5(CC4)CCN(c4ccncc4)CC5)cc32)c1Cl (stereo not drawn) [IND_CC-214, 2-Chloro-6-fluoro-3-methyl-N-[6-(9-pyridin-4-yl-3,9-diazaspiro[5.5]undecane-3-carbonyl)-2,3-dihydro-1H-inden-1-yl]-benzamide] |
| 103 | 48 | Cc1ccc(F)c(C(=O)NC2CCc3ccc(C(=O)N4CCC5(CC4)CCN(c4ccncc4)C5)cc32)c1Cl (stereo not drawn) [IND_CC-215, 2-Chloro-6-fluoro-3-methyl-N-[6-(2-pyridin-4-yl-2,8-diazaspiro[4.5]decane-8-carbonyl)-2,3-dihydro-1H-inden-1-yl]-benzamide] |
| 103 | 58 | Cc1ccc(F)c(C(=O)NC2c3cc(C(=O)N4CCC5(CC4)CCN(c4ccncc4)CC5)ccc3CC2(C)C)c1Cl (stereo not drawn) [IND_CC-216, 2-Chloro-N-[2,2-dimethyl-6-(9-pyridin-4-yl-3,9-diazaspiro[5.5]undecane-3-carbonyl)-1,3-dihydro-inden-1-yl]-6-fluoro-3-methyl-benzamide] |
| 95 | 99 | O=C(NC1CCc2ccc(C(=O)N3CCC4(CC3)CCN(c3ccncc3)CC4)cc21)c1cc(C(F)(F)F)ccc1Cl (stereo not drawn) [IND_CC-217, 2-Chloro-N-[6-(9-pyridin-4-yl-3,9-diazaspiro[5.5]undecane-3-carbonyl)-2,3-dihydro-1H-inden-1-yl]-5-(trifluoromethyl)-benzamide] |
| 103 | 94 | O=C(NC1CCc2ccc(C(=O)N3CCC4(CC3)CCN(c3ccncc3)C4)cc21)c1cc(C(F)(F)F)ccc1Cl (stereo not drawn) [IND_CC-218, 2-Chloro-N-[6-(2-pyridin-4-yl-2,8-diazaspiro[4.5]decane-8-carbonyl)-2,3-dihydro-1H-inden-1-yl]-5-(trifluoromethyl)-benzamide] |
| 104 | 53 | CC1(C)Cc2ccc(C(=O)N3CCC4(CC3)CCN(c3ccncc3)CC4)cc2C1NC(=O)c1cc(C(F)(F)F)ccc1Cl (stereo not drawn) [IND_CC-219, 2-Chloro-N-[2,2-dimethyl-6-(9-pyridin-4-yl-3,9-diazaspiro[5.5]undecane-3-carbonyl)-1,3-dihydro-inden-1-yl]-5-(trifluoromethyl)-benzamide] |
| 104 | 100 | O=C(NC1CCc2ccc(C(=O)N3CCC4(CC3)CCN(c3ccncc3)CC4)cc21)c1cc(F)ccc1Cl (stereo not drawn) [IND_CC-220, 2-Chloro-5-fluoro-N-[6-(9-pyridin-4-yl-3,9-diazaspiro[5.5]undecane-3-carbonyl)-2,3-dihydro-1H-inden-1-yl]-benzamide] |
| 104 | 100 | O=C(NC1CCc2ccc(C(=O)N3CCC4(CC3)CCN(c3ccncc3)C4)cc21)c1cc(F)ccc1Cl (stereo not drawn) [IND_CC-221, 2-Chloro-5-fluoro-N-[6-(2-pyridin-4-yl-2,8-diazaspiro[4.5]decane-8-carbonyl)-2,3-dihydro-1H-inden-1-yl]-benzamide] |
| 105 | 97 | CC1(C)Cc2ccc(C(=O)N3CCC4(CC3)CCN(c3ccncc3)CC4)cc2C1NC(=O)c1cc(F)ccc1Cl (stereo not drawn) [IND_CC-223, 2-Chloro-N-[2,2-dimethyl-6-(9-pyridin-4-yl-3,9-diazaspiro[5.5]undecane-3-carbonyl)-1,3-dihydro-inden-1-yl]-5-fluoro-benzamide] |
| 103 | 100 | CN(C(=O)c1cc(F)c(F)cc1Cl)C1CCc2ccc(C(=O)N3CCC4(CC3)CCN(c3ccncc3)CC4)cc21 (stereo not drawn) [IND_CC-224, 2-Chloro-4,5-difluoro-N-methyl-N-[6-(9-pyridin-4-yl-3,9-diazaspiro[5.5]undecane-3-carbonyl)-2,3-dihydro-1H-inden-1-yl]-benzamide] |
